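How tested: cells in 96-well plates exposed to compound for 48 hours at five concentrations. GI50 is the concentration that inhibits growth by half.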 Calls of active or inactive are those of the source. No stated cut-off is given here; in the data, active = GI50 up to about 1.1 µM and inactive = higher.
How the values were obtained:
Assay in all cases: DTP human tumour cell line panel, 48 h
[1] = system: COLO 205
[2] = system: HCT-116
[3] = system: IGROV-1
[4] = system: KM12
[5] = system: Malme-3M
[6] = system: NCI-H23
[7] = system: NCI-H460
[8] = system: RPMI-8226
[9] = system: RXF 393
[10] = system: SF-268
[11] = system: SF-539
[12] = system: SK-MEL-2
[13] = system: SK-OV-3
[14] = system: SN12C
[15] = system: SNB-19
[16] = system: SR
[17] = system: SW-620
[18] = system: T47D
[19] = system: UACC-257
[20] = system: UO-31

Compound	GI50 [1]	GI50 [2]	GI50 [3]	GI50 [4]	GI50 [5]	GI50 [6]	GI50 [7]	GI50 [8]	GI50 [9]	GI50 [10]	GI50 [11]	GI50 [12]	GI50 [13]	GI50 [14]	GI50 [15]	GI50 [16]	GI50 [17]	GI50 [18]	GI50 [19]	GI50 [20]
O=[N+]([O-])c1ccc(S(=O)(=O)Cc2ccccc2)c2nonc12	16.4 µM (inactive)	17.3 µM (inactive)	18.8 µM (inactive)	19.5 µM (inactive)	17.9 µM (inactive)	19.1 µM (inactive)	21.1 µM (inactive)	25.1 µM (inactive)	17.7 µM (inactive)	20 µM (inactive)	17.9 µM (inactive)	19.3 µM (inactive)	> 100 µM (inactive)	13.9 µM (inactive)	37 µM (inactive)	24.2 µM (inactive)	22.1 µM (inactive)	18.9 µM (inactive)	16.1 µM (inactive)	29.2 µM (inactive)
N#CC(C#N)=Cn1c(=S)[nH]c2ccccc21	> 100 µM (inactive)	> 100 µM (inactive)	> 100 µM (inactive)	> 100 µM (inactive)	> 100 µM (inactive)	> 100 µM (inactive)	> 100 µM (inactive)	> 100 µM (inactive)	> 100 µM (inactive)	> 100 µM (inactive)	> 100 µM (inactive)	> 100 µM (inactive)	> 100 µM (inactive)	> 100 µM (inactive)	> 100 µM (inactive)	> 100 µM (inactive)	> 100 µM (inactive)	> 100 µM (inactive)	> 100 µM (inactive)	> 100 µM (inactive)
CCCCCCCCCCCC(=O)N(CCCCCCCCC)CC(O)C(O)C(OC1OC(CO)C(O)C(O)C1O)C(O)CO (stereo not given)	20.7 µM (inactive)	17.7 µM (inactive)	18.3 µM (inactive)	16.7 µM (inactive)	19.5 µM (inactive)	17.6 µM (inactive)	18.1 µM (inactive)	34 µM (inactive)	20.7 µM (inactive)	19.4 µM (inactive)	21.4 µM (inactive)	19.7 µM (inactive)	> 10 µM (inactive)	19.1 µM (inactive)	20.6 µM (inactive)	24.7 µM (inactive)	18.8 µM (inactive)	20.5 µM (inactive)	16.9 µM (inactive)	17 µM (inactive)
ClC1=C(Cl)C(Cl)(Cl)SS1	1.98 µM (inactive)	> 4.57 µM (inactive)	> 7 µM (inactive)	> 10 µM (inactive)	3.15 µM (inactive)	> 10 µM (inactive)	> 10 µM (inactive)	3.44 µM (inactive)	> 10 µM (inactive)	> 10 µM (inactive)	> 10 µM (inactive)	> 10 µM (inactive)	> 10 µM (inactive)	> 10 µM (inactive)	> 10 µM (inactive)	1.73 µM (inactive)	2.47 µM (inactive)	4.79 µM (inactive)	> 5.09 µM (inactive)	> 4.47 µM (inactive)
COC1OC(COC(=O)c2cc(O)c(O)c(O)c2)C(OC(=O)c2cc(O)c(O)c(O)c2)C(OC(=O)c2cc(O)c(O)c(O)c2)C1OC(=O)c1cc(O)c(O)c(O)c1 (stereo not given)	39.4 µM (inactive)	33 µM (inactive)	27.4 µM (inactive)	22.4 µM (inactive)	27.9 µM (inactive)	78.5 µM (inactive)	9.2 µM (inactive)	28.3 µM (inactive)	64.1 µM (inactive)	27 µM (inactive)	12.4 µM (inactive)	> 100 µM (inactive)	4.78 µM (inactive)	27.2 µM (inactive)	43.4 µM (inactive)	11.1 µM (inactive)	31.6 µM (inactive)	52.4 µM (inactive)	> 100 µM (inactive)	17.1 µM (inactive)
CN(C)/C=N/S(=O)(=O)c1nn2c(C=O)c(-c3cc4ccccc4oc3=O)nc2s1	1.91 µM (inactive)	1.79 µM (inactive)	9.4 µM (inactive)	12.1 µM (inactive)	1.95 µM (inactive)	9.68 µM (inactive)	19.3 µM (inactive)	1.39 µM (inactive)	2.58 µM (inactive)	11.1 µM (inactive)	4.53 µM (inactive)	11.9 µM (inactive)	39.8 µM (inactive)	5.92 µM (inactive)	39.4 µM (inactive)	5.73 µM (inactive)	2.18 µM (inactive)	4.09 µM (inactive)	11.8 µM (inactive)	1.51 µM (inactive)
O=C1/C(=C/c2ccc(F)cc2)CNC/C1=C\c1ccc(F)cc1	1.44 µM (inactive)	0.27 µM (active)	0.667 µM (active)	0.53 µM (active)	3.28 µM (inactive)	1.5 µM (inactive)	0.675 µM (active)	0.275 µM (active)	1.82 µM (inactive)	0.818 µM (active)	0.865 µM (active)	12 µM (inactive)	6.92 µM (inactive)	2.14 µM (inactive)	1.59 µM (inactive)	0.305 µM (active)	0.364 µM (active)	3.37 µM (inactive)	3.76 µM (inactive)	1.81 µM (inactive)

From ChEMBL document CHEMBL1201862, “PubChem BioAssay data set” (2004)
